Source: patent US20160089464A1, “MALODOR REDUCTION COMPOSITIONS” (The Procter & Gamble Company, priority 2014, published 2016)

Assay: Comment Code material properties: vapor pressure, ClogP, probability of ingredient color instability, odor detection threshold, melamine formaldehyde PMC headspace response ratio and leakage, liquid dish neat product liquid-air partition coefficient
Type: physicochemical
[1] = Table 1 materials, each letter of the code is one property class (vapor pressure, ClogP, color instability, odor detection threshold, PMC headspace ratio, PMC leakage, liquid dish liquid-air partition coefficient)
[2] = cell strings several class symbols together, each letter is one property class of L1

Structure (SMILES)	Comment Code [1]	Comment Code [2]
CCC(=O)C=CC1C(C)=CCCC1(C)C (stereo not drawn) [Material 700]	BDHJK	–
CC(C=O)=Cc1ccccc1 [Material 701]	–	ACHIK
CC(=O)C(C)=CC1C(C)=CCCC1(C)C (stereo not drawn) [Material 703]	–	BDHIJK
CC(=O)C=CC1C(C)=CCC(C)C1(C)C (stereo not drawn) [Material 704]	BDHJK	–
C=C1CCCC(C)(C)C2C=C(C)CCC12 (stereo not drawn) [Material 707]	BDEFHJK	–
CC1=C2C(CC1)C(C)CCC1C2C1(C)C (stereo not drawn) [Material 708]	BDEFHJKL	BDEFHJKL
C=C(C)C1CCC(C)C2=C(C1)C(C)CC2 (stereo not drawn) [Material 709]	DEFHJKL	–
C=CC(C)=CCC=C(C)CCC=C(C)C [Material 710]	DEFHJK	–
C=C1CC2CCC1C2(C)C (stereo not drawn) [Material 711]	ADEFGIJKL	–
CC1=CCC23C(C)CCC(C(C)C)C2C13 (stereo not drawn) [Material 714]	ADEFHJKL	ADEFHJKL
CC1=CC2C(C(C)C)CCC(C)(O)C2CC1 (stereo not drawn) [Material 716]	DEFHJK	–
CC(C)=CCCC(C)(O)C1CC=C(C)CC1 (stereo not drawn) [Material 718]	DFHJK	–
CC(C)=CCCC1(C)C2CC=C(C)C1C2 (stereo not drawn) [Material 720]	BDEFHJKL	–
CCCCCC(=Cc1ccccc1)CO [Material 721]	DEFHJ	–
CCCCCC(=Cc1ccccc1)C(OCC)OCC [Material 723]	DEFHJ	–
CC1=CC2C(CC1)C(C)=CCC2C(C)C (stereo not drawn) [Material 725]	DEFHJKL	–
CC1=CCCC2(C)CCC3CC12OC3(C)C (stereo not drawn) [Material 726]	BDEFHJK	BDEFHJK
CCCC(O)Cc1ccccc1 (stereo not drawn) [Material 730]	CEFHK	–
CCC(C)(O)CCc1ccccc1 (stereo not drawn) [Material 731]	CEFHJK	–
COc1ccc(C=O)c(OC)c1OC [Material 733]	BCGI	–
COc1cc(OC)c(C=O)c(OC)c1 [Material 736]	BCGI	–
CCCCC=CC=CC=O [Material 738]	ACHKL	–
COC1=C(C)OC(C)C1=O (stereo not drawn) [Material 740]	–	ACEFGIJKL
CC(C)CCCC(C)CCCC(C)C=O (stereo not drawn) [Material 741]	BDFGJK	–
C=CCOC(=O)COc1ccccc1 [Material 743]	–	BCGK
C=CCOCCc1ccccc1 [Material 744]	–	ACEFHK

Structure (SMILES)	Comment Code [1]	Comment Code [2]
C=CCOC(=O)CCC1CCCCC1 [Material 746]	BDEFHJK	–
COC(=O)c1ccccc1N=CC1CC(C)=CC(C)C1 (stereo not drawn) [Material 754]	DEFHJ	–
CCC(=O)N(CC)c1cccc(C)c1 [Material 755]	–	CEFHJK
CC(=O)C(C)O (stereo not drawn) [Material 760]	–	ACEFGIKL
CCCOC(C)OCCC [Material 767]	ACEFGIKL	–
COCCOC(C)OCc1ccccc1 (stereo not drawn) [Material 768]	BCEFHJK	–
CCCCCC(C=O)=Cc1ccc(C)cc1 [Material 769]	DHJ	–
O=C1CCCCCC=CCCCCCCCCO1 [Material 771]	DGJ	–
CC1=CCCC2(C)CCC(C(C)(C)O)CC12 (stereo not drawn) [Material 775]	DEFHJK	–
CC(C)c1ccc2ncccc2c1 [Material 778]	CEFHJK	–
CCC(C)CC(CC)CCCC(C)O (stereo not drawn) [Material 779]	–	BDEFGIJKL
CC1(C)C2CC=C(CCC=O)C1C2 (stereo not drawn) [Material 781]	BCFHJK	–
CC(=O)CCCC(C)CCCC(C)CCCC(C)C (stereo not drawn) [Material 782]	DEFHJK	–
C=Cc1ccc(O)cc1 [Material 789]	–	BCHIK
CCc1ccc(OC)c(O)c1 [Material 797]	–	CEFHIK
CC1=CCC(O)(C(C)C)CC1 (stereo not drawn) [Material 800]	BCHIJK	–
Cc1coc2c1CCC(C)C2 (stereo not drawn) [Material 802]	BCEFHIJKL	–
CC1C(=O)CC2(C)CCCC(C)(C)C23CC13 (stereo not drawn) [Material 804]	BDEFHJK	BDEFHJK
CCC=C1OC(=O)c2ccccc21 [Material 805]	CEFHK	–
CCCCCCCCCC=CC=O [Material 806]	BDFHJK	–
CC(CC=O)CCc1ccccc1 (stereo not drawn) [Material 807]	BDFHJK	–
Cc1n[nH]cc1-c1ccccc1 [Material 808]	–	CEFHK
COc1cc(C)cc(O)c1 [Material 811]	–	BCHIK
COC(C)(C)CCO [Material 812]	–	ACGIKL
CC(C)CCCC(C)CCO (stereo not drawn) [Material 820]	–	BDEFGIJKL
CCC(C)CCC(C)(CC)OC(C)=O (stereo not drawn) [Material 821]	ADEFHIJKL	–

Structure (SMILES)	Comment Code [1]	Comment Code [2]
CCCCCCCCC=CC=O [Material 828]	ADHJK	–
CCCC(=O)OCCc1ccccc1 [Material 831]	DEFHJK	–
CC(=O)OCCc1ccccc1 [Material 832]	–	BCEFHK
O=CC(=Cc1ccco1)c1ccccc1 [Material 833]	CHJ	–
OCCOc1ccccc1 [Material 834]	BCEFGIK	–
CCCCCC1CCCC1O (stereo not drawn) [Material 836]	–	DEFHIKL
CCCCCCCC(C)=O [Material 840]	ADFHIKL	–
CCC(C)c1nccnc1OC (stereo not drawn) [Material 845]	–	BCEFGIK
CNC(=O)C(C)(C(C)C)C(C)C [Material 846]	–	ACEFGIJK
CC(C)CC=C(C=O)C(C)C [Material 847]	–	ADFGIJKL
Cc1csc(C(C)C)n1 [Material 848]	–	ACHIJKL
CC(C)Cc1ccc2ccccc2n1 [Material 849]	CEFHJK	–
CCCCCC=C1CCCC1=O [Material 850]	DFHJKL	–
CCCC=CCO [Material 851]	–	ACEFHIKL
CCCCCCCC=CC=O [Material 856]	ADHKL	–
CCC=CCCC=CC=O [Material 864]	ACHKL	–
CCC=CCCC=CCO [Material 865]	ACEFHK	–
CCC(C)CCCC(C)C=O (stereo not drawn) [Material 866]	ADFGIJKL	–
CCCCCCCCCCO [Material 868]	BDEFGJK	–
CCCCCC=COC(C)=O [Material 869]	ACEFHKL	–
C=CCCCCCCCCCO [Material 870]	DEFHJK	–
C=CCCCCCCCCC=O [Material 871]	ADHJK	–
C=CC=CC=CCCCCC [Material 876]	ADEFHJKL	–
CC(=O)OC1C2(C)CCC(C2)C1(C)C (stereo not drawn) [Material 878]	ADEFHIJKL	–

The remaining lines, values ahead:

Comment Code [1]	Comment Code [2]	Structure (SMILES)
ADEFGIJKL	–	C=C(C)C1CC=C(C)CC1 (stereo not drawn) [Material 702]
DEFHJK	–	CC1=CCCC(C)=CCC(C)(C)C=CC1 [Material 706]
DEFHJK	DEFHJK	CC1=CCCC2(C)CCC(C(C)(C)O)CC12 (stereo not drawn) [Material 712]
DEFHJK	–	CC(C)=CCCC(C)c1ccc(C)cc1 (stereo not drawn) [Material 713]
DEFHJKL	–	CC1=CC2C(CC1)C(C)=CCC2C(C)C (stereo not drawn) [Material 717]
DEFHJK	–	CC(C)=CCC=C(C)C1CC=C(C)CC1 (stereo not drawn) [Material 719]
DEFHJ	–	CCCCCC(=Cc1ccccc1)COC(C)=O [Material 722]
DFHJK	–	CC(C)=CCCC1=CCC(C)(C=O)CC1 (stereo not drawn) [Material 727]
ACHJK	–	Cc1ccc(CC(C)C=O)cc1 (stereo not drawn) [Material 742]
BCEFGJK	–	C=CCOC(=O)COCCC(C)C [Material 748]
BDEFHJKL	BDEFHJKL	C=C1CCC2C(C3C(C)CCC13)C2(C)C (stereo not drawn) [Material 750]
BDFHJK	–	CC(C)=CCCC(C)CCCC(C)C=O (stereo not drawn) [Material 757]
–	BCEFHIK	COc1ccc(C(C)=O)cc1 [Material 761]
CEFHJK	–	CCCOC(C)OCCc1ccccc1 (stereo not drawn) [Material 766]
ADHKL	–	C=CCCCCCCCC=O [Material 770]
BDEFHJK	–	C=C(C)C1CCC2(C)CCC=C(C)C2C1 (stereo not drawn) [Material 774]
–	BCEFHIKL	Cc1ccc2ncccc2c1 [Material 777]
–	ACFGIKL	CCC(=O)CC(C)CC (stereo not drawn) [Material 784]
ACGIJKL	–	C=CC1(C)CCC(C(=C)C)O1 (stereo not drawn) [Material 786]
DEFGJK	DEFGJK	O=C1CCCC=CCCCCCCCCCC1 [Material 788]

Comment Code [1]	Comment Code [2]	Structure (SMILES)
BCHIJK	–	CC1=CCC(O)(C(C)C)CC1 (stereo not drawn) [Material 791]
BCEFHIK	–	C=CCCC(=O)c1ccccc1 [Material 792]
BCEFHJK	–	COc1ccc(CCC(C)=O)cc1 [Material 803]
–	ACEFGIKL	CC1CCC(=O)C1=O (stereo not drawn) [Material 810]
ADEFHJKL	–	CCC=CCCOC(=O)CC(C)C [Material 814]
–	ACEFHIKL	CCC=CCCO [Material 817]
–	ADFHIJK	C=C(C=O)C(C)CCC=C(C)C (stereo not drawn) [Material 819]
BDFHJK	–	CC(C)c1ccc(CCC=O)cc1 [Material 826]
BDEFHJK	–	CCCCCCCCC=CC#N [Material 827]
ACHKL	–	CC/C=C/CC/C=C/C=O [Material 829]
–	BCEFHJK	CCC(=O)OCCc1ccccc1 [Material 835]
ADHKL	–	CCCCCCC=CC=O [Material 837]
–	BDEFHJK	CCCCCCCC1(C)OCC(C)O1 (stereo not drawn) [Material 838]
BDEFGIKL	–	CCCCCCCC(C)O (stereo not drawn) [Material 839]
BDEFHJKL	–	CCCCCCCC1CCCO1 (stereo not drawn) [Material 852]
DFHJK	–	CC1=C2CC(C(C)(C)O)CCC2(C)CCC1 (stereo not drawn) [Material 872]
ADEFHIJKL	–	CC12CCC(CC1)C(C)(C)S2 [Material 873]
–	ADGIJKL	CC(C)C12CCC(C)(CC1)O2 [Material 875]
BCEFGIJKL	–	CCC(C)(O)CCC=C(C)C (stereo not drawn) [Material 877]
ADHIJKL	–	CC1C(C)(C)c2ccccc2C1(C)C [Material 879]
